Each compound was assayed against HIV-1 fusion (gp160 induced cell-cell fusion; HeLa P4 cell line expressing CCR5 and CD4 / CHO-Tat10 cell line) (Homo sapiens, UniProt P51681) (assay: gp160 induced cell-cell fusion assay). Details: HeLa P4 / CHO-Tat10 cells, read-out: IC50.
Format: cell-based
Description: Biol., 60, 147-52 (1996); and/or by using the intracellular calcium mobilisation assays as described by the same authors, and/or inhibiting cell fusion following procedures disclosed in Bradley et al., J Biomol Screen 9, 516-24 (2004).
The gp160 induced cell-cell fusion assay uses a HeLa P4 cell line and a CHO-Tat10 cell line.
The HeLa P4 cell line expresses CCR5 and CD4 and has been transfected with HIV-1 LTR-β-Galactosidase. The media for this cell line is Dulbecco modified eagle's medium (D-MEM) (without L-glutamine) containing 10% foetal calf serum (FCS), 2 mM L-glutamine, penicillin/streptomycin (Pen/Strep; 100 U/mL penicillin+[…] streptomycin), and 1 μg/ml puromycin.
The CHO cell line is a Tat (transcriptional trans activator)-expressing clone from a CHO JRR17.1 cell line that has been transfected with pTat puro plasmid. The media for this cell line is rich medium for mammalian cell culture originally developed at Roswell Park Memorial Institute RPMI1640 (without L-glutamine) containing 10% FCS, 2 mM L-glutamine, 0.5 mg/ml Hygromycin B and 12 µg/ml puromycin. The CHO JRR17.1 line expresses gp160 (JRFL) and is a clone that has been selected for its ability to fuse with a CCR5/CD4 expressing cell line.
Upon cell fusion, Tat present in the CHO cell is able to transactivate the HIV-1 long terminal repeat (LTR) present in the HeLa cell leading to the expression of the β-Galactosidase enzyme. This expression is then measured using a Fluor Ace™ β-Galactosidase reporter assay kit (Bio-Rad cat no. 170-3150). This kit is a quantitative fluorescent assay that determines the level of expression of β-galactosidase using 4-methylumbelliferyl-galactopyranoside (MUG) as substrate. β-Galactosidase hydrolyses the fluorogenic substrate resulting in release of the fluorescent molecule 4-methylumbelliferone (4MU). Fluorescence of 4-methylumbelliferone is then measured on a fluorometer using an excitation wavelength of 360 nm and emission wavelength of 460 nm.
Compounds that inhibit fusion will give rise to a reduced signal and, following solubilisation in an appropriate solvent and dilution in culture medium, a dose-response curve for each compound can be used to calculate IC50 values.

HIV-1 fusion (gp160 induced cell-cell fusion; HeLa P4 cell line expressing CCR5 and CD4 / CHO-Tat10 cell line), sequence (P51681 whole entry, the tested form may be a part): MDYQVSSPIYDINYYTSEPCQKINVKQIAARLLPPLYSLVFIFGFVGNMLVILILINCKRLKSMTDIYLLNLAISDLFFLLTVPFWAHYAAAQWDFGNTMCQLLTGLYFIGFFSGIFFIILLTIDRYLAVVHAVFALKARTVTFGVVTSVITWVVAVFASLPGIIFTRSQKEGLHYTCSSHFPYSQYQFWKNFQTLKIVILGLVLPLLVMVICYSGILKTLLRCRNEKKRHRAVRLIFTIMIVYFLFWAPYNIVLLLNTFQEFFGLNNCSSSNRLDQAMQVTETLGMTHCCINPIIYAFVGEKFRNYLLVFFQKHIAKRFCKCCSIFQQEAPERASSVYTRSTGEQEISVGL

Row | Compound | IC50 [nM]
1 | CCC(=O)N[C@@H](CC(C)N1CCC(n2c(C)nc3c2CCN(C(=O)OC)C3)CC1)c1cccc(F)c1 (stereo partly shown) [Example 91] | 102
2 | COC(=O)N1CCc2nc(C)n(C3CCN(C(C)CC(NC(=O)CC4CC4)c4ccccc4)CC3)c2C1 (mixture of isomers) [Example 7] | 0.9
3 | COC(=O)N1CCc2c(nc(C)n2C2CCN(C(C)CC(NC(C)=O)c3cccc(F)c3)CC2)C1 (mixture of isomers) [Example 76] | 5.5
4 | CCOC(=O)N1CCc2c(nc(C)n2C2CCN(C(C)C[C@H](NC(=O)C(C)C)c3cccc(F)c3)CC2)C1 (single isomer, unassigned) [Example 95] | 5.5
5 | CC(C)c1nc(C2CCN(C(C)CC(NC(=O)C3CCC(F)(F)CC3)c3ccccc3)CC2)no1 (mixture of isomers) [Example 131] | 20.2
6 | CC(C)Cc1nnc(C2CCN(C(C)CC(NC(=O)C3CCC(F)(F)CC3)c3ccccc3)CC2)o1 (mixture of isomers) [Example 130] | 5.9
7 | CC(=O)N[C@@H](CC(C)N1CCC(n2c(C)nc3c2CN(C(=O)C(C)C)CC3)CC1)c1ccccc1 (single isomer, unassigned) [Example 31] | 191
8 | COC(=O)N1CCc2nc(C)n(C3CCN(C(C)C[C@H](NC(=O)C4CCC4(F)F)c4ccccc4)CC3)c2C1 (stereo partly shown) [Example 5] | 0.7
9 | COC(=O)N1CCc2nc(C)n(C3CCN(C(C)CC(NC(=O)C4CCC(F)(F)CC4)c4ccccc4)CC3)c2C1 (mixture of isomers) [Example 6] | 1
10 | Cc1nc2c(n1C1CCN(C(C)C[C@H](NC(=O)C(C)C)c3ccccc3)CC1)CN(C(=O)C(C)C)CC2 (single isomer, unassigned) [Example 29] | 29.9
11 | CC(CC(NC(=O)C1CCC(F)(F)CC1)c1ccccc1)N1CCC(n2ccnc2)CC1 (mixture of isomers) [Example 127] | 4.7
12 | CC(=O)N1CCc2nc(C)n(C3CCN(C(C)C[C@H](NC(=O)C4CCC4(F)F)c4ccccc4)CC3)c2C1 (stereo partly shown) [Example 53] | 0.5
13 | Cc1cc(C(C)C)n(C2CCN(C(C)C[C@H](NC(=O)C3CCC(F)(F)CC3)c3ccccc3)CC2)n1 (single isomer, unassigned) [Example 116] | 50.5
14 | CCOC(=O)N1CCc2nc(C)n(C3CCN(C(C)C[C@H](NC(C)=O)c4cccc(F)c4)CC3)c2C1 (stereo partly drawn) [Example 66, Ethyl 3-{1-[(3S)-3-(acetylamino)-3-(3-fluorophenyl)-1-methylpropyl]piperidin-4-yl}-2-methyl-3,4,6,7-tetrahydro-5H-imidazo[4,5-c]pyridine-5-carboxylate] | 3.5
15 | CCC(=O)N[C@@H](CC(C)N1CCC(n2c(C)nc3c2CCN(C(C)=O)C3)CC1)c1cccc(F)c1 (single isomer, unassigned) [Example 102] | 25.9
16 | COC(=O)N1CCc2nc(C)n(C3CCN(C(C)CC(NC(=O)OC(C)C)c4ccccc4)CC3)c2C1 (mixture of isomers) [Example 14] | 17.2
17 | COC(=O)N1CCc2nc(C)n(C3CCN(C(C)C[C@H](NC(=O)OC(C)(C)C)c4ccccc4)CC3)c2C1 (single isomer, unassigned) [Example 3] | 434
18 | CC(=O)N[C@@H](CC(C)N1CCC(n2c(C)nc3c2CN(C(=O)C(C)C)CC3)CC1)c1cccc(F)c1 (stereo partly shown) [Example 64] | 2
19 | COC(=O)N1CCc2nc(C)n(C3CCN(C(C)CC(NC(=O)C(C)C)c4ccccc4)CC3)c2C1 (mixture of isomers) [Example 11] | 0.6
20 | Cc1nc(C2CCN(C(C)CC(NC(=O)C3CCC(F)(F)CC3)c3ccccc3)CC2)no1 (mixture of isomers) [Example 128] | 26
21 | COC(=O)N[C@@H](CC(C)N1CCC(n2c(C)nc3c2CN(C(=O)OC)CC3)CC1)c1ccccc1 (single isomer, unassigned) [Example 13B] | 600
22 | CCCC(=O)N[C@@H](CC(C)N1CCC(n2c(C)nc3c2CN(C(C)=O)CC3)CC1)c1cccc(F)c1 (single isomer, unassigned) [Example 47] | 0.7
23 | COC(=O)N1CCc2nc(C)n(C3CCN(C(C)CC(NC(=O)C4CCC4)c4ccccc4)CC3)c2C1 (mixture of isomers) [Example 10] | 0.3
24 | Cc1nc2c(n1C1CCN(C(C)C[C@H](NC(=O)C3CCC3(F)F)c3ccccc3)CC1)CN(C(=O)C(C)C)CC2 (stereo partly shown) [Example 26] | 38.5
25 | Cc1noc(C2CCN(C(C)C[C@H](NC(=O)OC(C)(C)C)c3ccccc3)CC2)n1 (single isomer, unassigned) [Example 106A] | 362
26 | CC(=O)N1CCc2nc(C)n(C3CCN(C(C)C[C@H](NC(=O)OC(C)C)c4cccc(F)c4)CC3)c2C1 (stereo partly shown) [Example 61] | 1.6
27 | CCC(=O)N[C@@H](CC(C)N1CCC(n2c(C)nc3c2CN(C(=O)OC)CC3)CC1)c1cccc(F)c1 (stereo partly shown) [Example 67] | 0.2
28 | CC(=O)N1CCc2nc(C)n(C3CCN(C(C)C[C@H](NC(=O)CC(C)C)c4cccc(F)c4)CC3)c2C1 (single isomer, unassigned) [Example 50] | 0.4
29 | CCOC(=O)N1CCc2c(nc(C)n2C2CCN(C(C)C[C@H](NC(=O)CC)c3cccc(F)c3)CC2)C1 (single isomer, unassigned) [Example 98] | 19.1
30 | CC(=O)N1CCc2nc(C)n(C3CCN(C(C)C[C@H](NC(=O)C4CCC(F)(F)CC4)c4ccccc4)CC3)c2C1 (stereo partly shown) [Example 54] | 0.4

Same assay, conditions: IC50 (nM), HeLa P4 / CHO-Tat10 cells

Row | Compound | IC50 [nM]
31 | CCC(=O)N[C@@H](CC(C)N1CCC(n2c(C)nc3c2CCN(C(=O)OC)C3)CC1)c1ccccc1 (stereo partly drawn) [Example 92, methyl 2-methyl-1-{1-[(3S)-1-methyl-3-phenyl-3-(propionylamino)propyl]piperidin-4-yl}-1,4,6,7-tetrahydro-5H-imidazo[4,5-c]pyridine-5-carboxylate] | 0.4
32 | CCCC(=O)N[C@@H](CC(C)N1CCC(n2c(C)nc3c2CN(C(C)=O)CC3)CC1)c1ccccc1 (stereo partly drawn) [Example 56, N-{(1S)-3-[4-(5-acetyl-2-methyl-4,5,6,7-tetrahydro-3H-imidazo[4,5-c]pyridin-3-yl)piperidin-1-yl]-1-phenylbutyl}butanamide] | 1.2
33 | CCC(=O)N[C@@H](CC(C)N1CCC(n2c(C)nc3c2CCN(C(C)=O)C3)CC1)c1cccc(F)c1 (stereo partly drawn) [Example 104, N-[(1S)-3-[4-(5-acetyl-2-methyl-4,5,6,7-tetrahydro-1H-imidazo[4,5-c]pyridin-1-yl)piperidin-1-yl]-1-(3-fluorophenyl)butyl]propanamide] | 0.8
34 | CC(=O)N1CCc2c(nc(C)n2C2CCN(C(C)C[C@H](NC(=O)C(C)C)c3cccc(F)c3)CC2)C1 (stereo partly drawn) [Example 94, N-[(1S)-3-[4-(5-acetyl-2-methyl-4,5,6,7-tetrahydro-1H-imidazo[4,5-c]pyridin-1-yl)piperidin-1-yl]-1-(3-fluorophenyl)butyl]-2-methylpropanamide] | 0.2

Reference: patent US20090209578A1, “CHEMICAL COMPOUNDS” (PFIZER INC, priority 2005, published 2009)
